Assay results reported in PMC6273491, “Two New Oleanane-Type Saponins with Anti-Proliferative Activity from Camellia oleifera Abel. Seed Cake” (Molecules, 2016).

Legend:
Assay type in all cases: cell-based
[1] = system: five human tumor cell lines (BEL-7402, BGC-823, MCF-7, HL-60 and KB); test: MTT anti-proliferative assay, panel of five human tumor cell lines; conditions: 72 h treatment, range across BEL-7402, BGC-823, MCF-7, HL-60, KB, read-out: anti-proliferative activity IC50 values, range over five cell lines
Protocol: (§1) The isolated Compounds 1, 2 and total seed cake saponins (C. oleifera) were tested against five human tumor cell lines (human hepatocellular carcinoma cells BEL-7402, human gastric carcinoma cells BGC-823, human breast cancer cells MCF-7, human promyelocytic leukemia cells HL-60 and human oral epidermoid carcinoma cells KB) using the MTT in vitro assay. Taxol, an anticancer agent, was used as the positive control.
(§2) The procedure for the anti-proliferative activity assay was performed according to the MTT reduction method using the human tumor cell lines BEL-7402, BGC-823, MCF-7, HL-60 and KB (Nanjing KeyGEN BioTECH Co., LTD, Jiangsu, China). In brief, the human tumor cell lines in culture medium (100 μL) were placed in a cell of a 96-well plate at a concentration of 4 × 10^3 cells/mL and incubated at 37 °C in 5% CO2 for 24 h. After 24 h, an additional 100 μL of complete medium with either: no additions (negative control), 0.1% DMSO (solvent control), 10 μg/mL Taxol (positive control), or different concentrations (0.391, 0.781, 1.562, 3.125, 6.25, 12.5, 25 and 50 μM) of 1 or 2 or total saponins (0.391, 0.781, 1.562, 3.125, 6.25, 12.5, 25 and 50 μg/mL). The treated cells were incubated as above for 72 h. […] The optical density (OD) of each well was measured at 490 nm using a Tunable Microplate Reader (EL-x800, BioTek Instruments, Winooski, VT, USA). […]

[2] = system: human gastric carcinoma cells BGC-823; test: MTT anti-proliferative assay, BGC-823; conditions: 72 h treatment, read-out: Cell Lines IC50 BGC-823
Protocol: as §1, §2

[3] = system: human hepatocellular carcinoma cells BEL-7402; test: MTT anti-proliferative assay, BEL-7402; conditions: 72 h treatment, read-out: Cell Lines IC50 BEL-7402
Protocol: as §1, §2

[4] = system: human promyelocytic leukemia cells HL-60; test: MTT anti-proliferative assay, HL-60; conditions: 72 h treatment, read-out: Cell Lines IC50 HL-60
Protocol: as §1, §2

[5] = system: human oral epidermoid carcinoma cells KB; test: MTT anti-proliferative assay, KB; conditions: 72 h treatment, read-out: Cell Lines IC50 KB
Protocol: as §1, §2

[6] = system: human breast cancer cells MCF-7; test: MTT anti-proliferative assay, MCF-7; conditions: MCF7, 72 h treatment, read-out: Cell Lines IC50 MCF-7
Protocol: as §1, §2

IC50 [1] [µM]	IC50 [2] [µM]	IC50 [3] [µM]	IC50 [4] [µM]	IC50 [5] [µM]	IC50 [6] [µM]	SMILES
6.5 to 15.1	11.2	10.4	6.49	12.3	15.1	CC=C(C)C(=O)OC1CC(C)(C)CC2C3=CCC4C5(C)CCC(OC6OC(C(=O)OC)C(O)C(OC7OC(CO)C(O)C(O)C7OC7OC(CO)C(O)C(O)C7O)C6OC6OC(CO)C(O)C(O)C6O)C(C)(C=O)C5CCC4(C)C3(C)CC(O)C12CO [Compound 1, 16α-hydroxy-22α-O-angeloyl-23α-aldehyde-28-dihydroxymethylene-olean-12-ene-3β-O-[β-D-galacto-pyranosyl-(1→2)]-[β-D-glucopyranosyl-(1→2)-β-D-galactopyranosy-(1→3)]-β-D-glucopyranosid-uronic acid methyl ester]
1.8 to 5.5	5.5	4.22	1.8	3.47	3.92	CC=C(C)C(=O)OC1CC(C)(C)CC2C3=CCC4C5(C)CCC(OC6OC(C(=O)OC)C(O)C(OC7OC(CO)C(O)C(O)C7O)C6OC6OC(CO)C(O)C(O)C6O)C(C)(C=O)C5CCC4(C)C3(C)CC(O)C12CO [Compound 2, 16α-hydroxy-22α-O-angeloyl-23α-aldehyde-28-dihydroxymethylene-olean-12-ene-3β-O-[β-D-galactopyranosyl-(1→2)]-[β-D-galactopyranosyl-(1→3)]-β-D-glucopyranosiduronic acid methyl ester]
